Results published in patent US20060276464A1, “Diarylsulfone sulfonamides and use thereof” (Wyeth, priority 2005, published 2006).
Like-named read-outs stand apart in the source and are kept apart here.

Legend:
SFRP-1 [1] = biological target: T1, SFRP-1 (Homo sapiens, UniProt Q8N474); assay: Fluorescence polarization binding assay (competitive displacement of a probe compound from SFRP-1); details: fluorescence anisotropy, 45 nM SFRP-1, 20 nM probe;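 further: test compound competes with a fluorescent probe held by SFRP-1, seen as a drop in probe anisotropy after incubation in darkness, with anisotropy as function of rising compound dose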
T1 sequence (Q8N474 32-314): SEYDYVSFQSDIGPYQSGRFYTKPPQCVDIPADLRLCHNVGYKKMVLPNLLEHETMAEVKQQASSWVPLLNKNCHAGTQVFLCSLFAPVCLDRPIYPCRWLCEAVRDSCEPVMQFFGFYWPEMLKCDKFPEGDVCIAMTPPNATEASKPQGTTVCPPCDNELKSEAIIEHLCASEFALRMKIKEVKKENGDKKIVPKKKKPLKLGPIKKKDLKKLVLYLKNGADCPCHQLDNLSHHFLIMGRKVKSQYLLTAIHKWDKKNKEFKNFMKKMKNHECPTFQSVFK

SFRP-1 [2] = biological target: T1, SFRP-1; assay: Cell-based assay for in vitro measurement of SFRP-1/SARP2 antagonist activity (U2OS cells co-transfected with 16x TCF-tk-Luciferase reporter, Wnt and hSFRP-1); details: for fold induction at 10 µM / fold induction at 15 µM: U2OS; for fold induction at 10 µM: read-out: Fold Induction with SFRP-1, U2OS cells, single dose 10 μM, luciferase reporter, fold induction over SFRP-1 control;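 on all read-outs here: U2OS cells co-transfected with a TCF-tk luciferase reporter, a Wnt vector, hSFRP-1 or empty vector and CMV-βgal, luciferase luminescence read in cell lysates alongside βgal activity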
[3] = read-out: Fold Induction with SFRP-1, Conc 15 μM, with SFRP-1, fold induction over SFRP-1 control, single dose
[4] = read-out: Fold Induction without SFRP-1, Conc 15 μM, without SFRP-1, single dose
[5] = read-out: Fold Induction with SFRP-1, Conc 15 μM, single dose, luciferase reporter, fold induction over SFRP-1 control, cells with SFRP-1
[6] = read-out: Fold Induction without SFRP-1, Conc 15 μM, single dose, luciferase reporter, cells without SFRP-1 (specificity control)

Structure (SMILES)	IC50 (SFRP-1 [1]) [nM]	EC50 (SFRP-1 [2]) [nM]	fold induction at 10 µM (SFRP-1 [2])	fold induction at 15 µM (SFRP-1 [2]; [3])	fold induction at 15 µM (SFRP-1 [2]; [4])	fold induction at 15 µM (SFRP-1 [2]; [5])	fold induction at 15 µM (SFRP-1 [2]; [6])
CC(=O)N1CC[C@@H](C(=O)N2CCC(NS(=O)(=O)c3cc(S(=O)(=O)c4ccccc4)ccc3C(F)(F)F)CC2)C1 [Example 1064, N-(1-{[(3R)-1-acetylpyrrolidin-3-yl]carbonyl}piperidin-4-yl)-5-(phenylsulfonyl)-2-(trifluoromethyl)benzenesulfonamide]	60	193					
O=S(=O)(NCCn1ccnc1)c1cc(S(=O)(=O)c2ccc(F)cc2)ccc1C(F)(F)F [Example 816, 5-[(4-fluorophenyl)sulfonyl]-N-[2-(1H-imidazol-1-yl)ethyl]-2-(trifluoromethyl)benzenesulfonamide]	270	1510	3.8				
CC(C)c1ccc(S(=O)(=O)c2ccccc2)cc1S(=O)(=O)NCCc1ccccc1 [Example 295, 2-isopropyl-N-(2-phenylethyl)-5-(phenylsulfonyl)benzenesulfonamide]	300			2.7	1.5		
O=S(=O)(NCc1ccc(Cl)nc1)c1cc(S(=O)(=O)c2ccccc2)ccc1C(F)(F)F [Example 1030, N-[(6-chloropyridin-3-yl)methyl]-5-(phenylsulfonyl)-2-(trifluoromethyl)benzenesulfonamide]	500	1110					
O=S(=O)(N[C@@H]1CCNC1)c1cc(S(=O)(=O)c2ccccc2)ccc1C(F)(F)F [Example 797, 5-(phenylsulfonyl)-N-[(3R)-pyrrolidin-3-yl]-2-(trifluoromethyl)benzenesulfonamide]	800		3.5				
Cc1ccc(S(=O)(=O)c2ccccc2)cc1S(=O)(=O)NC1CCC1 [Example 398, N-cyclobutyl-2-methyl-5-(phenylsulfonyl)benzenesulfonamide]	9000			2.6	1.2		
CCc1nccn1CCNS(=O)(=O)c1cc(S(=O)(=O)c2ccc(F)cc2)ccc1C(C)C [Example 584, N-[2-(2-ethyl-1H-imidazol-1-yl)ethyl]-5-[(4-fluorophenyl)sulfonyl]-2-isopropylbenzenesulfonamide]	500					3.4	1.1
CC(C)c1ccc(S(=O)(=O)c2ccc(N3C[C@@H](C)N[C@@H](C)C3)cc2)cc1S(=O)(=O)NC1CCOCC1 [Example 626, 5-({4-cis-3,5-dimethylpiperazin-1-ylphenyl}sulfonyl)-2-isopropyl-N-(tetrahydro-2H-pyran-4-yl)benzenesulfonamide]	4000					2.9	1.1
O=C(c1ccccc1)c1cccc(C(=O)N2CCC(NS(=O)(=O)c3cc(S(=O)(=O)c4ccccc4)ccc3C(F)(F)F)CC2)c1 [Example 801, N-[1-(3-benzoylbenzoyl)piperidin-4-yl]-5-(phenylsulfonyl)-2-(trifluoromethyl)benzenesulfonamide]	180	1080	3.4				
CCCc1ccc(S(=O)(=O)c2ccc(F)cc2)cc1S(=O)(=O)NCCC1CCOCC1 [Example 562, 5-[(4-Fluorophenyl)sulfonyl]-2-propyl-N-[2-(tetrahydro-2H-pyran-4-yl)ethyl]benzenesulfonamide]	1600					3.3	1.2
O=C(CN1CCC(NS(=O)(=O)c2cc(S(=O)(=O)c3ccccc3)ccc2C(F)(F)F)CC1)c1ccccc1 [Example 751, N-[1-(2-oxo-2-phenylethyl)piperidin-4-yl]-5-(phenylsulfonyl)-2-(trifluoromethyl)benzenesulfonamide]	300	4850	3.1				
CC(C)c1ccc(S(=O)(=O)c2ccc(F)cc2)cc1S(=O)(=O)NC1CCSCC1 [Example 815, 5-[(4-fluorophenyl)sulfonyl]-2-isopropyl-N-(tetrahydro-2H-thiopyran-4-yl)benzenesulfonamide]	1800		2.2				
COc1cccc(S(=O)(=O)c2ccc(C(C)C)c(S(=O)(=O)NC3CCOCC3)c2)c1 [Example 598, 2-isopropyl-5-[(3-methoxyphenyl)sulfonyl]-N-(tetrahydro-2H-pyran-4-yl)benzenesulfonamide]	900					3.6	1.4
Cc1c(C#N)cccc1S(=O)(=O)c1ccc(C(C)C)c(S(=O)(=O)NCCc2ccccn2)c1 [Example 593, 5-[(3-cyano-2-methylphenyl)sulfonyl]-2-isopropyl-N-(2-pyridin-2-ylethyl)benzenesulfonamide]	900					2	1.1
O=S(=O)(NC1Cc2ccccc2C1)c1cc(S(=O)(=O)c2ccccc2)ccc1C(F)(F)F [Example 772, N-(2,3-dihydro-1H-inden-2-yl)-5-(phenylsulfonyl)-2-(trifluoromethyl)benzenesulfonamide]	80		1.2				
CC(C)c1ccc(S(=O)(=O)c2ccc(F)cc2)cc1S(=O)(=O)NC1CCN(C(=S)Nc2cccnc2)CC1 [Example 701, 4-[({5-[(4-fluorophenyl)sulfonyl]-2-isopropylphenyl}sulfonyl)amino]-N-pyridin-3-ylpiperidine-1-carbothioamide]	700	698	3				
O=S(=O)(NCCc1ccc[n+]([O-])c1)c1cc(S(=O)(=O)c2ccccc2)ccc1C(F)(F)F [Example 723, N-[2-(1-oxidopyridin-3-yl)ethyl]-5-(phenylsulfonyl)-2-(trifluoromethyl)benzenesulfonamide]	200	790	4.5				
O=C(O)c1cccc(-c2cccc(CNS(=O)(=O)c3cc(S(=O)(=O)c4ccccc4)ccc3C(F)(F)F)c2)c1 [Example 996, 3′-[({[5-(phenylsulfonyl)-2-(trifluoromethyl)phenyl]sulfonyl}amino)methyl]biphenyl-3-carboxylic acid]	300	3010					
O=C(O)CCCNS(=O)(=O)c1cc(S(=O)(=O)c2ccccc2)ccc1C(F)(F)F [Example 893, 4-({[5-(phenylsulfonyl)-2-(trifluoromethyl)phenyl]sulfonyl}amino)butanoic acid]	700		1.8				
Cc1cc(C)c(S(=O)(=O)c2ccccc2)cc1S(=O)(=O)NCCC1CCOCC1 [Example 328, 2,4-dimethyl-5-(phenylsulfonyl)-N-(2-tetrahydro-2H-pyran-4-ylethyl)benzenesulfonamide]	3000			2.6	1.1		
CCNC(=O)N1CCC(NS(=O)(=O)c2cc(S(=O)(=O)c3ccccc3)ccc2C)CC1 [Example 501, N-ethyl-4-({[2-methyl-5-(phenylsulfonyl)phenyl]sulfonyl}amino)piperidine-1-carboxamide]	4000					2.5	0.9
CN(CCNS(=O)(=O)c1cc(S(=O)(=O)c2ccccc2)ccc1C(F)(F)F)C(=O)c1ccc(CBr)cc1 [Example 983, 4-(bromomethyl)-N-methyl-N-[2-({[5-(phenylsulfonyl)-2-(trifluoromethyl)phenyl]sulfonyl}amino)ethyl]benzamide]	800	1140					
O=S(=O)(NCCc1cccnc1)c1cc(S(=O)(=O)c2ccc(O)cc2)ccc1C(F)(F)F [Example 814, 5-[(4-hydroxyphenyl)sulfonyl]-N-(2-pyridin-3-ylethyl)-2-(trifluoromethyl)benzenesulfonamide]	120	307	4.5				
CC(C)c1ccc(S(=O)(=O)c2ccc(C(C)(C)C)cc2)cc1S(=O)(=O)NCCc1ccccn1 [Example 435, 5-[(4-tert-butylphenyl)sulfonyl]-2-isopropyl-N-(2-pyridin-2-ylethyl)benzenesulfonamide]	2600			1.7	1		
N#Cc1ccc(CCNS(=O)(=O)c2cc(S(=O)(=O)c3ccccc3)ccc2C(F)(F)F)cc1 [Example 966, N-[2-(4-cyanophenyl)ethyl]-5-(phenylsulfonyl)-2-(trifluoromethyl)benzenesulfonamide]	500	229	1.5				
CC(C)c1ccc(S(=O)(=O)c2ccc(C(C)(C)C)cc2)cc1S(=O)(=O)NC1CCOCC1 [Example 437, 5-[(4-tert-butylphenyl)sulfonyl]-2-isopropyl-N-(tetrahydro-2H-pyran-4-yl)benzenesulfonamide]	5000			2.2	1		
CCOC(=O)N1CCC(NS(=O)(=O)c2cc(S(=O)(=O)c3ccccc3)ccc2C)CC1 [Example 425, ethyl 4-({[2-methyl-5-(phenylsulfonyl)phenyl]sulfonyl}amino)piperidine-1-carboxylate]	2800			2.5	1.2		
